Experimental data taken from patent publication US20240043386A1, “Modulators of the Cystic Fibrosis Transmembrane Conductance Regulator Protein and Methods of Use” (AbbVie Global Enterprises Ltd., priority 2021, published 2024).
Read-outs that look alike come from different tables or passages of the source.

Tests used:
[1] = biological target: T1, F508del/F508del CFTR (Homo sapiens, UniProt P13569, DEL508-508); test: Trans-Epithelial Current Clamp (TECC) assay using primary human bronchial epithelial cells; assay type: cell-based; conditions: for Emax (% Dual): maximum percent activity relative to positive control (co-corrector 0.15 μM + potentiator 0.45 μM = 100%), primary hBE cells F508del/F508del; for EC50: primary hBE cells homozygous F508del/F508del, test C2 corrector with co-corrector and potentiator, 18-24 hours at 37° C., equivalent CFTR current (IEQ)/AUC
T1 construct: cells isolated from CF patients with the homozygous mutation; endogenous in cells; host or cells: primary human bronchial epithelial (hBE) cells from CF patients homozygous for F508del
T1 sequence (P13569 with tags, fused parts or gaps DEL508-508): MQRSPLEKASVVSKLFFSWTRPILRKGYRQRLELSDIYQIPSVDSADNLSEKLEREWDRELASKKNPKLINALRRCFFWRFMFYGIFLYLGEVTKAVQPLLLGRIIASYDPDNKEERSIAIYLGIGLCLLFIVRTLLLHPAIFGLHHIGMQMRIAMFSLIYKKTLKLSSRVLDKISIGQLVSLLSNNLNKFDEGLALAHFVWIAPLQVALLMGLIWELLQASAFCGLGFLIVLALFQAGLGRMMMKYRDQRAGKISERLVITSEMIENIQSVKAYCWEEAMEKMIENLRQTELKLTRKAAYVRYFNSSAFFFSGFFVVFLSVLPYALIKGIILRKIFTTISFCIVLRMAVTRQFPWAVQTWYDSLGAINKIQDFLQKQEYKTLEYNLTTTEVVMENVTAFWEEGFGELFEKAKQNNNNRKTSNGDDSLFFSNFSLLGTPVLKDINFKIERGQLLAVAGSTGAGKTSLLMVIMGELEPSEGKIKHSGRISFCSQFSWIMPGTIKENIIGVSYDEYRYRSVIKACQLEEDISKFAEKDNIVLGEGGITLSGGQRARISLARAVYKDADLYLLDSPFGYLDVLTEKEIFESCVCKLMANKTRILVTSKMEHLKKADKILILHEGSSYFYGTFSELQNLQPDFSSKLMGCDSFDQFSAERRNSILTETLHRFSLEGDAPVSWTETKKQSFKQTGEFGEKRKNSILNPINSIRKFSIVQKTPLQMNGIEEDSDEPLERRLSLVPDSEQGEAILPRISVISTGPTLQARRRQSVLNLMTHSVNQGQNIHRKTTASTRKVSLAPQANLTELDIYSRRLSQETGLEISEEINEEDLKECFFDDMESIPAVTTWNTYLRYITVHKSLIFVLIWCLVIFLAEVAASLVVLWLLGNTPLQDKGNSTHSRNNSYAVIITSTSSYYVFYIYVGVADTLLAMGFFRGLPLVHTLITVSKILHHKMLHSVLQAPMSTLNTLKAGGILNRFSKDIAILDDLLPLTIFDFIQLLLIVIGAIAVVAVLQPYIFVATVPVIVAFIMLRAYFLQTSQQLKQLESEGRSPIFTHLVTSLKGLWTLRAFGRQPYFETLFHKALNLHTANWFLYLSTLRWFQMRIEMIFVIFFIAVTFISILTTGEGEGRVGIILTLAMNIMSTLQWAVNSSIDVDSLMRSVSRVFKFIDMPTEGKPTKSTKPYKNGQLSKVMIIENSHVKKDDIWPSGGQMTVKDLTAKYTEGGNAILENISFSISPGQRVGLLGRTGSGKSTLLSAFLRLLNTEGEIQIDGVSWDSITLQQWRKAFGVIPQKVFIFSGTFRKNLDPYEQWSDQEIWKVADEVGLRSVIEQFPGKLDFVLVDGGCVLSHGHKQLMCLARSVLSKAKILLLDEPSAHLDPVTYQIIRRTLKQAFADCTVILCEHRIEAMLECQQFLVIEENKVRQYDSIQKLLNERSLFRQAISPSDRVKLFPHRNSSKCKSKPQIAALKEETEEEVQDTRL
Source text: A cell-based assay was developed using the primary human bronchial epithelial cells (hBE cells) with F508del/F508del CFTR and other mutations.
Primary human bronchial epithelial (hBE) cells from CFTR patients with homozygous F508del/F508del mutation were expanded from 1×10^6 to 250×10^6 cells (Neuberger, T et al., 2011, Methods Mol Biol 741:39-54). For this purpose, cells isolated from CF patients with the homozygous mutation, procured from the CF center tissue procurement and cell culture core at the Marsico Lung Institute at UNC (Randell), the Cystic Fibrosis translational research center at McGill University (University), and Rosalind Franklin University Medical School (RFUMS) were seeded onto 24 well Corning (Cat #3378) filter plates that were coated with 3T3 conditioned media and grown at an air-liquid interface for 35 days using an Ultroser® G supplemented differentiation media. All the primary human bronchial epithelial cells were collected in accordance with institutional review board approval protocols. Apical surface mucus was removed 72 hours before the experiment by incubating the apical surface of the cells for 30 minutes with 3 mM dithiothreitol (DTT) prepared in Dulbecco's phosphate buffered saline (DPBS) with Ca^2+ and Mg^2+. This was followed with aspiration of the mucus from the apical surface along with DPBS. The apical surface was re-washed with phosphate buffered saline (PBS) incubated for 30 minutes followed with aspiration. These hBE cells were then incubated with the desired concentrations of the test C2 corrector compounds along with co-corrector, 4-[(2R,4R)-4-({[1-(2,2-difluoro-1,3-benzodioxol-5-yl)cyclopropyl]carbonyl}amino)-7-(difluoromethoxy)-3,4-dihydro-2H-chromen-2-yl]benzoic acid and potentiator, (5-{3-amino-5-[4-(trifluoromethoxy)benzene-1-sulfonyl]pyridin-2-yl}-1,3,4-oxadiazol-2-yl)methanol, for 18-24 hours at 37° C., 5% CO2. The desired concentrations of the correctors and potentiator compounds were prepared from the 10 mM stocks in differentiation media and were always applied on the basolateral side of the epithelial cells. We also used an assay format where a fixed concentration of potentiator was added chronically along with the corrector compounds. This chronic treatment with the potentiator helped eliminate any interaction that might happen with CFTR modulators (correctors and potentiators) and thereby determined the true efficacy of the modulator combinations reflective of clinical relevance.
The assay uses a Transepithelial Current Clamp (TECC) (Vu, C B et al., 2017; J Med Chem 60:458-473) instrument that can measure the functionality of the mutated channel by measuring the equivalent CFTR current (IEQ) generated by the polarized primary epithelial cells. We used a TECC-24 with a 24-channel electrode manifold allowing for the simultaneous measurement of the transepithelial voltage, VT, and transepithelial resistance, RT, under current clamp conditions, from 24 filters using a 24 well Costar filter plate. The design of the filters in the 24 well filter plates was exactly the same as the design of an individual Transwell filter used in the classical Ussing Chamber with a surface area of 0.33 cm^2. Each measured VT values were corrected for the electrode offset potential measured using buffer alone in a separate plate, and each measured RT values were then corrected for the combined solution series and empty filter resistances. The corrected VT and RT values were then used to calculate the equivalent current, IEQ using Ohm's law (IEQ=VT/RT). The area under the curve (AUC) for the time period between the forskolin peak IEQ response and at the time of bumetanide addition was also calculated using a one-third trapezoid method, in addition to calculating the IEQ. The assay was run in a 24-well format and all 24-wells were measured at the same time point giving a higher throughput for this assay. […]

[2] = biological target: T2, F508delCFTR (Homo sapiens, UniProt P13569, DEL508-508); test: Cell Surface Expression-Horse Radish Peroxidase (CSE-HRP) assay in CFBE41o-F508delCFTR-HRP cells; assay type: cell-based; conditions: for EC50: CFBE41o-F508delCFTR-HRP cells, 18-24 hours at 33° C., luminescence; for Maximum % activity (without co-corrector) / Maximum % activity (with co-corrector): normalized to on-plate positive control corrector (2 μM)
T2 construct: expressed in transfected cells; host or cells: CFBE41o- human lung-derived epithelial cell line, doxycycline-inducible expression
T2 sequence (P13569 with tags, fused parts or gaps DEL508-508): as above
Protocol: A cellular assay for measuring the F508delCFTR cell surface expression after correction with test compounds either without or with a co-corrector (2 μM of 3-[(2R,4R)-4-({[1-(2,2-difluoro-1,3-benzodioxol-5-yl)cyclopropyl]carbonyl}amino)-7-methoxy-3,4-dihydro-2H-chromen-2-yl]benzoic acid), was developed in human lung derived epithelial cell line (CFBE4lo-) (Veit G et al, (2012) Mol Biol Cell. 23(21): 4188-4202). The development was achieved by expressing the F508delCFTR mutation along with a horseradish peroxidase (HRP) in the fourth exofacial loop, and then measuring the HRP activity using luminescence readout from these cells, CFBE4lo-F508delCFTR-HRP, that were incubated overnight with the test corrector compounds, either without or with the co-corrector. For this primary assay, the CFBE4lo-F508delCFTR-HRP cells were plated in 384-well plates (Greiner Bio-one; Cat 781080) at 4,000 cells/well along with 0.5 μg/mL doxycycline to induce the F508delCFTR-RP expression and further incubated at 37° C., 5% CO2 for 68-72 hours. The test compounds were then added either without or with a co-corrector at the required concentrations and further incubated for 18-24 hours at 33° C. The highest concentration tested was 20 μM or 30 μM (GI-1 to GIII-36) with an 8-point concentration response curve using a 3-fold dilution in both the test compound without or with the co-corrector. Three replicate plates were run to determine one EC50. All plates contained negative controls (dimethyl sulfoxide, DMSO) and positive control (2 μM or 3 μM (GI-1 to GIII-36) of 3-[(2R,4R)-4-({[1-(2,2-difluoro-1,3-benzodioxol-5-yl)cyclopropyl]carbonyl}amino)-7-methoxy-3,4-dihydro-2H-chromen-2-yl]benzoic acid) as well as on-plate concentration response of the positive control. Post incubation, the plates were washed 5× times with Dulbecco's phosphate buffered saline (DPBS), followed by the addition of the HRP substrate, luminol (50 μL), and measuring the HRP activity using luminescence readout on EnVision® Multilabel Plate Reader (Perkin Elmer; product number 2104-0010). The raw counts from the experiment were analyzed using Accelrys® Assay Explorer v3.3.
Z′ greater than 0.5 was used as passing quality control criteria for the plates. The Z′ is defined as:
1−[3*SDPositive Control+3*SDNegative Control/Absolute (MeanPositive Control−MeanNegative Control)]
The % activity measured at each of the 8 test concentrations of the test compound added either without or with a co-corrector (2 μM or 3 μM (GI-1 to GIII-36) of 3-[(2R,4R)-4-({[1-(2,2-difluoro-1,3-benzodioxol-5-yl)cyclopropyl]carbonyl}amino)-7-methoxy-3,4-dihydro-2H-chromen-2-yl]benzoic acid) was normalized to the on-plate positive control using the following formulae:
% activity (Test compound without co-corrector)=[(test compound without co-corrector response−DMSO response)/(positive control response−DMSO response)]*100
% activity (Test compound with co-corrector)=[(test compound with co-corrector response−DMSO response)/(positive control response−DMSO response)]*100
The maximum % activity achieved for the test compound either without or with a co-corrector at any tested concentration is presented in Table 3 along with the respective EC50's calculated using the following general sigmoidal curve with variable Hill slope equation (described as Model 42 in the Accelrys® Assay Explorer v3.3 software):
General sigmoidal curve with concentration, response, top, bottom, EC50 and Hill slope. This model describes a sigmoidal curve with an adjustable baseline, a. The equation can be used to fit curves where response is either increasing or decreasing with respect to the independent variable, “x”.

[3] = with co-corrector (2 μM), read-out: EC50 (with co-corrector)
[4] = without co-corrector, read-out: EC50 (without co-corrector)

Emax (% Dual) [1]	EC50 [1]	EC50 [2, 3]	EC50 [2, 4]	Maximum % activity (without co-corrector) ([2]; without co-corrector)	Structure (SMILES)	Maximum % activity (with co-corrector) ([2]; with co-corrector (2 μM))
407 % Dual	0.51 nM	327 nM	479 nM	–	COc1ccc(C)cc1[C@]1(C(=O)NS(=O)(=O)c2cccc3nc(C)ccc23)C[C@@H]1c1cccc(C(F)(F)F)c1 (racemic) [Example 12, rac-(1r,2s)-1-(2-methoxy-5-methylphenyl)-N-(2-methylquinoline-5-sulfonyl)-2-[3-(trifluoromethyl)phenyl]cyclopropane-1-carboxamide]	–
308 % Dual	0.84 nM	698 nM	1010 nM	–	COc1cccc([C@@H]2C[C@]2(C(=O)NS(=O)(=O)c2cccc3nc(C)ccc23)c2cc(C)ccc2OC)c1 (racemic) [Example 15, rac-(1r,2s)-1-(2-methoxy-5-methylphenyl)-2-(3-methoxyphenyl)-N-(2-methylquinoline-5-sulfonyl)cyclopropane-1-carboxamide]	–
268 % Dual	9 nM	844 nM	929 nM	–	COc1ccc(C)cc1[C@@]1(C(=O)NS(=O)(=O)c2cccc3nc(C)ccc23)C[C@H]1c1ccccc1F (racemic) [Example 22, rac-(1r,2r)-2-(2-fluorophenyl)-1-(2-methoxy-5-methylphenyl)-N-(2-methylquinoline-5-sulfonyl)cyclopropane-1-carboxamide]	–
241 % Dual	7.7 nM	164 nM	273 nM	666%	COc1ccc(C)cc1[C@]1(C(=O)NS(=O)(=O)c2cccc3nc(C)ccc23)C[C@@H]1c1ccccc1C(F)(F)F (racemic) [Example 29, rac-(1r,2s)-1-(2-methoxy-5-methylphenyl)-N-(2-methylquinoline-5-sulfonyl)-2-[2-(trifluoromethyl)phenyl]cyclopropane-1-carboxamide]	–
331 % Dual	47.9 nM	1220 nM	1710 nM	582%	COc1ccc(C)cc1[C@@]1(C(=O)NS(=O)(=O)c2cccc3nc(C)ccc23)C[C@H]1c1cncc(C)n1 (racemic) [Example 35, rac-(1r,2r)-1-(2-methoxy-5-methylphenyl)-2-(6-methylpyrazin-2-yl)-N-(2-methylquinoline-5-sulfonyl)cyclopropane-1-carboxamide]	–
173 % Dual	> 300 nM	2480 nM	4320 nM	248%	COc1ncc([C@@H]2C[C@]2(C(=O)NS(=O)(=O)c2cccc3nc(C)ccc23)c2cc(C)ccc2OC)cn1 (racemic) [Example 36, rac-(1r,2s)-1-(2-methoxy-5-methylphenyl)-2-(2-methoxypyrimidin-5-yl)-N-(2-methylquinoline-5-sulfonyl)cyclopropane-1-carboxamide]	666%
317 % Dual	18 nM	639 nM	1230 nM	563%	COc1cnc([C@@H]2C[C@]2(C(=O)NS(=O)(=O)c2cccc3nc(C)ccc23)c2cc(C)ccc2OC)cn1 (racemic) [Example 39, rac-(1r,2r)-1-(2-methoxy-5-methylphenyl)-2-(5-methoxypyrazin-2-yl)-N-(2-methylquinoline-5-sulfonyl)cyclopropane-1-carboxamide]	–
244 % Dual	110 nM	1770 nM	2980 nM	497%	COc1cncc([C@@H]2C[C@]2(C(=O)NS(=O)(=O)c2cccc3nc(C)ccc23)c2cc(C)ccc2OC)c1 (racemic) [Example 41, rac-(1r,2s)-1-(2-methoxy-5-methylphenyl)-2-(5-methoxypyridin-3-yl)-N-(2-methylquinoline-5-sulfonyl)cyclopropane-1-carboxamide]	–

Structure (SMILES)	Emax (% Dual) [1]	EC50 [1]	EC50 [2, 3]	EC50 [2, 4]	Maximum % activity (without co-corrector) ([2]; without co-corrector)	Maximum % activity (with co-corrector) ([2]; with co-corrector (2 μM))
COc1ccc(C)cc1[C@@]1(C(=O)NS(=O)(=O)c2cccc3nc(C)ccc23)C[C@H]1c1cccnc1OC (racemic) [Example 40, rac-(1r,2s)-1-(2-methoxy-5-methylphenyl)-2-(2-methoxypyridin-3-yl)-N-(2-methylquinoline-5-sulfonyl)cyclopropane-1-carboxamide]	328 % Dual	19.6 nM	749 nM	1550 nM	448%	934%
